Measured values: US10640512B2, “Imidazopyrazinamine phenyl derivative and use thereof” (HANGZHOU SANYINTAI PHARMACEUTICAL TECHNOLOGY CO., LTD., priority 2016, dated 2020)
Read-outs that look alike come from different tables or passages of the source.

Columns and labels:
SYK = SYK (Homo sapiens, UniProt P43405); experiment: Caliper Mobility Shift Assay, kinase inhibition; type: biochemical
Excerpt: (§1) The test method used was the Caliper Mobility Shift Assay, the kinases to be tested are BTK, ITK, TEC, EGFR, HER2, HER4, JAK3, HCK, LYN, SRC and SYK. The standard reference compound used was staurosporine.

HCK = HCK (Homo sapiens, UniProt P08631); experiment: Caliper Mobility Shift Assay, kinase inhibition; type: biochemical
Sequence of HCK (P08631 whole entry): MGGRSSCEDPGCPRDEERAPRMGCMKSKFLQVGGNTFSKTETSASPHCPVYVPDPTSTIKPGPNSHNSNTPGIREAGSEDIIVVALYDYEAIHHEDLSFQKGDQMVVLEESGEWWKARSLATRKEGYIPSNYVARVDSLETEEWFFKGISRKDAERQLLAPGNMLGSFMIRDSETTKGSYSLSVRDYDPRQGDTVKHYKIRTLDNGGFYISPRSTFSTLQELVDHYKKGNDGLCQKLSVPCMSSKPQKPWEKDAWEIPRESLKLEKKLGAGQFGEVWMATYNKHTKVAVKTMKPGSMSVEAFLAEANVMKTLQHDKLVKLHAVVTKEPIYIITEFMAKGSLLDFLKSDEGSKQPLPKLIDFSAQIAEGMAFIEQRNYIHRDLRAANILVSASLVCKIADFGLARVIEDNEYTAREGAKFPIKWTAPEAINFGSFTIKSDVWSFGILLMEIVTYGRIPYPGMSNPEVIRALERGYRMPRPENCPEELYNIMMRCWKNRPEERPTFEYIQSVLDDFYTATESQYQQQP
Excerpt: as §1

LYN = LYN (Homo sapiens, UniProt P07948); experiment: Caliper Mobility Shift Assay, kinase inhibition; type: biochemical
Sequence of LYN (P07948 whole entry): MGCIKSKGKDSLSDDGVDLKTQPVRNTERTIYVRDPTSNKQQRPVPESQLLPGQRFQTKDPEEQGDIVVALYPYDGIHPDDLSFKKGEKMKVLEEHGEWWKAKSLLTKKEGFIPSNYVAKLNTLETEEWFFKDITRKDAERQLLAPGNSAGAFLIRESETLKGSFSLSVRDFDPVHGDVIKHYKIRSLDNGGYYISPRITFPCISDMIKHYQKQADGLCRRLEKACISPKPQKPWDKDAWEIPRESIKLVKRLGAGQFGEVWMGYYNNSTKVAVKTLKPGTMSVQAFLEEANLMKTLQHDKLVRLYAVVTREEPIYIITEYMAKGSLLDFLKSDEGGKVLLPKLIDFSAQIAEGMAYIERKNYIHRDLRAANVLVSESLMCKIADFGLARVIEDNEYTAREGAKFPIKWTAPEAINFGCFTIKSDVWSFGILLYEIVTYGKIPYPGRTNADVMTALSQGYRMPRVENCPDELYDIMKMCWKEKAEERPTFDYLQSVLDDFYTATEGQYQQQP
Excerpt: as §1

SRC = SRC (Homo sapiens, UniProt P12931); experiment: Caliper Mobility Shift Assay, kinase inhibition; type: biochemical
Sequence of SRC (P12931 whole entry): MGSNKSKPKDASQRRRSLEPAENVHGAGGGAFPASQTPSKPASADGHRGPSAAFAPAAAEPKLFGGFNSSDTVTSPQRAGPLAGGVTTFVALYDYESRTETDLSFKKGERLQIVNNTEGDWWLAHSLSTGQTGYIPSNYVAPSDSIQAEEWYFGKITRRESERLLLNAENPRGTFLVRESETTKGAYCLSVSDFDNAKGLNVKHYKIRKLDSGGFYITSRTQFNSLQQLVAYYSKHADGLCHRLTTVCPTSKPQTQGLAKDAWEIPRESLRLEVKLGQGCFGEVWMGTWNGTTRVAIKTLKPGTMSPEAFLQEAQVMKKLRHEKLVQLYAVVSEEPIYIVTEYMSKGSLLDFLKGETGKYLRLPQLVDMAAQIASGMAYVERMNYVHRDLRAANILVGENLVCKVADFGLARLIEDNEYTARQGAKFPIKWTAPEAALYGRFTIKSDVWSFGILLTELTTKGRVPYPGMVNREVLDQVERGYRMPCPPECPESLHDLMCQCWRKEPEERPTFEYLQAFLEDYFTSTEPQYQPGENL
Excerpt: as §1

[1] = In vitro liver microsomal metabolism (mouse); type: in vitro ADME; details: for half-life / CLint scaled: mouse liver microsomes; for half-life: NADPH, 37° C., read-out: T1/2 in liver microsomes; for CLint scaled: calculated from elimination half life, read-out: intrinsic clearance (CLint)
Experimental: (§2) In addition, in vitro liver microsomal metabolism of the compounds of the present invention was also tested. The test compound was co-incubated with NADPH and mouse or human liver microsomes in a 37° C. water bath pot, a reaction was initiated by adding the test compound. […] was taken at different time points (0, 10, 20, 40 and 60 minutes) and transferred to acetonitrile containing an internal standard. After proteins were precipitated, the supernatant was obtained by centrifugation. The test compound in the supernatant was analyzed by the LC-MS/MS method. The intrinsic clearance in vitro was calculated according to the elimination half life of the test compound in the incubation system. Midazolam was subjected to parallel incubation as a positive control. […] Tests of the other compounds of the present invention also had similar results.

[2] = disclosed in a conference paper (2nd International Conference on New Concepts in B-cell Malignancies, 2016); cited from earlier work
[3] = In vitro liver microsomal metabolism (human); type: in vitro ADME; details: human liver microsomes; for half-life: NADPH, 37° C., read-out: T1/2 in liver microsomes; for CLint scaled: calculated from elimination half life, read-out: intrinsic clearance (CLint)
Experimental: as §2

BTK = BTK (Homo sapiens, UniProt Q06187); experiment: Caliper Mobility Shift Assay, kinase inhibition; type: biochemical; details: for IC50: BTK enzyme activity; for inhibiting effects on BTK kinase (in words): summary of Table 1
Sequence of BTK (Q06187 whole entry): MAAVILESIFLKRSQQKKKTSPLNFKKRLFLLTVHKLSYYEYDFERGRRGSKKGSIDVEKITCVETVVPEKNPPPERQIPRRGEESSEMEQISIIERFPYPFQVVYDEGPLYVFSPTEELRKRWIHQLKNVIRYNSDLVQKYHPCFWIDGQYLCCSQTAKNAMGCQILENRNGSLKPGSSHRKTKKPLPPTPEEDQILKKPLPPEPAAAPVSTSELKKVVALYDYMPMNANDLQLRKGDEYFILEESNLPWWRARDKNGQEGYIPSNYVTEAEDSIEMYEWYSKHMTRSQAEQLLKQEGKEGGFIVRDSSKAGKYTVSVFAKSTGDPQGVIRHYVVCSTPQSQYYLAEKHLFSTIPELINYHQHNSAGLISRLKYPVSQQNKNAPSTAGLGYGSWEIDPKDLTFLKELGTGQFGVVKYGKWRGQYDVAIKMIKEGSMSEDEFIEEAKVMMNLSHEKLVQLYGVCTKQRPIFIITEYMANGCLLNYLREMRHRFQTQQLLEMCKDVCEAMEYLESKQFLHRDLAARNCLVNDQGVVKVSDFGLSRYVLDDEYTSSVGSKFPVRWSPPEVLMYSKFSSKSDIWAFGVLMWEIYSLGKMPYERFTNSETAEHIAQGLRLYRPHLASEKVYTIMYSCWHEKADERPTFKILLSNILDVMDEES
Excerpt: as §1

ITK = molecular target: T1, ITK (Homo sapiens, UniProt Q08881); experiment: Caliper Mobility Shift Assay, kinase inhibition; type: biochemical
T1 sequence (Q08881 1-620): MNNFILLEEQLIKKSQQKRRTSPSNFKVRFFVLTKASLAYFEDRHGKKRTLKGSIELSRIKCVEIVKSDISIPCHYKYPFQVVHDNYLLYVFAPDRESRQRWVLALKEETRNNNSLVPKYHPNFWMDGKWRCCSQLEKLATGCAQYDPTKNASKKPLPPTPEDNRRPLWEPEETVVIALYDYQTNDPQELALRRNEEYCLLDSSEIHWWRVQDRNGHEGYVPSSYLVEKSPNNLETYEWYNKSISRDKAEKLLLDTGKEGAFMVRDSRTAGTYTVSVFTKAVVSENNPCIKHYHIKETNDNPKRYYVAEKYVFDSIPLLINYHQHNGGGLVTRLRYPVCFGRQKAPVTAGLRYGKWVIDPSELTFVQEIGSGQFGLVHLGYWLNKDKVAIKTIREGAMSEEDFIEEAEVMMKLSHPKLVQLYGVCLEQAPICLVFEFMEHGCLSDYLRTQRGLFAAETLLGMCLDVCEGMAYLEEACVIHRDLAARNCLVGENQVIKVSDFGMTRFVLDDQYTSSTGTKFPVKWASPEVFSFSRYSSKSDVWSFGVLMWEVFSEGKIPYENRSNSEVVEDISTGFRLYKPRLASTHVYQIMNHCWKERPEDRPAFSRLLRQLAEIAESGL
Excerpt: as §1

JAK3 = molecular target: T2, JAK3 (Homo sapiens, UniProt P52333); experiment: Caliper Mobility Shift Assay, kinase inhibition; type: biochemical
T2 sequence (P52333 1-1124): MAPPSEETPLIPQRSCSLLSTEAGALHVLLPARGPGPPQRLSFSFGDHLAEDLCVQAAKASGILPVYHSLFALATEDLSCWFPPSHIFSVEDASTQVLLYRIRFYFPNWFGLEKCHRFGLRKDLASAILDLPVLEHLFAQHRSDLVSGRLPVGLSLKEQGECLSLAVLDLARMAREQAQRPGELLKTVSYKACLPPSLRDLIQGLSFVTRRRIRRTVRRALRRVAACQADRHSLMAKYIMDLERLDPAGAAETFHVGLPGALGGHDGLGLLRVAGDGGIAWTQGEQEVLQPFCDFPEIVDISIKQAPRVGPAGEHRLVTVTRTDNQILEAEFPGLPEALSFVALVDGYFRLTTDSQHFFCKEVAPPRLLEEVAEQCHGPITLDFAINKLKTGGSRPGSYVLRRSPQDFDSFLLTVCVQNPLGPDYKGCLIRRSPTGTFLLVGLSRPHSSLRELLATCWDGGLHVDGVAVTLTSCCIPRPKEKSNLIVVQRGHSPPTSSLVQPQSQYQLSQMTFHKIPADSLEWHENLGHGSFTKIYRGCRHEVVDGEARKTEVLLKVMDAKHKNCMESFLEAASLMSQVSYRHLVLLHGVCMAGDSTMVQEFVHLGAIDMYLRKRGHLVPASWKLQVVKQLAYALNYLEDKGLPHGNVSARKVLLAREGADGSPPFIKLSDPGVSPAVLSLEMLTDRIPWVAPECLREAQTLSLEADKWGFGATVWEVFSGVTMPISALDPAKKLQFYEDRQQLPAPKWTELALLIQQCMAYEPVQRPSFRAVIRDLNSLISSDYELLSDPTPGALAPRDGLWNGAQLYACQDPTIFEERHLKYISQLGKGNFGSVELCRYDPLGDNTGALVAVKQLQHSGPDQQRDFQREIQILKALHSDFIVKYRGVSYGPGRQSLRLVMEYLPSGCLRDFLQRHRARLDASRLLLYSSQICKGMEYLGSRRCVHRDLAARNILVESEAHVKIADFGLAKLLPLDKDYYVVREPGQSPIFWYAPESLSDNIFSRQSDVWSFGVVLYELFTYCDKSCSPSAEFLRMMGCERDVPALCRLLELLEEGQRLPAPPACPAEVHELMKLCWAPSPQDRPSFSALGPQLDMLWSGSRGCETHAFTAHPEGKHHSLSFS
Excerpt: as §1

EGFR = EGFR (Homo sapiens, UniProt P00533); experiment: Caliper Mobility Shift Assay, kinase inhibition; type: biochemical
Sequence of EGFR (P00533 25-1210): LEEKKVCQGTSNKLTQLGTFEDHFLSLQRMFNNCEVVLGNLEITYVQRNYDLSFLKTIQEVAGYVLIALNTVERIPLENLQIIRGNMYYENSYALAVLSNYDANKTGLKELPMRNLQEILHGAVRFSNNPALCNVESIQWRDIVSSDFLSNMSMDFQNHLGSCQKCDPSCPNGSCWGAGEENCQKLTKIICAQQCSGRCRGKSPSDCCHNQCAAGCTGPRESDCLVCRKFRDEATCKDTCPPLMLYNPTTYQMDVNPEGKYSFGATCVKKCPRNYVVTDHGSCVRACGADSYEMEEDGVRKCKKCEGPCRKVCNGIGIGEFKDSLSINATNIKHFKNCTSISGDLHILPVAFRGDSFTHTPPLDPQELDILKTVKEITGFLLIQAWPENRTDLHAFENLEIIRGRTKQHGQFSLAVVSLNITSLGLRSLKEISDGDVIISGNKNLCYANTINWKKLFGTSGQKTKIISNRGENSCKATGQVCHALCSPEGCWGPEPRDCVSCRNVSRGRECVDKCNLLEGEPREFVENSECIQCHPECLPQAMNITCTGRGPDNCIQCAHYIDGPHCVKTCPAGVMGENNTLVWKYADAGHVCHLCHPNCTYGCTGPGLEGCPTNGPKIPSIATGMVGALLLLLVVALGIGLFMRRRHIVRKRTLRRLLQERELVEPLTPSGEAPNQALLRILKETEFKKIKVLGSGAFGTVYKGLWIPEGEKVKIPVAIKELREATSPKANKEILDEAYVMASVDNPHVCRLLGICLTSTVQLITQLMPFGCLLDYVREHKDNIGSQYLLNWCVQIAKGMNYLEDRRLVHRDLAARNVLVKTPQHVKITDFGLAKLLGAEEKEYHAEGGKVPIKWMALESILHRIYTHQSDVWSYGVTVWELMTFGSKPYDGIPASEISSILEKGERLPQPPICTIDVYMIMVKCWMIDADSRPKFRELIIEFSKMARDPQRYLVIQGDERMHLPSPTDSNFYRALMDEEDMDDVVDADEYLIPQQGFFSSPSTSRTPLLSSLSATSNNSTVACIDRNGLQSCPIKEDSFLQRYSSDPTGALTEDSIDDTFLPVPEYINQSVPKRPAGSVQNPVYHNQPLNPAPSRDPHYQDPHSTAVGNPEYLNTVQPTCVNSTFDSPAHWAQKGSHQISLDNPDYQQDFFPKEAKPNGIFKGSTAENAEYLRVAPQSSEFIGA
Excerpt: as §1

HER4 = HER4 (Homo sapiens, UniProt Q15303); experiment: Caliper Mobility Shift Assay, kinase inhibition; type: biochemical
Excerpt: as §1

TEC = molecular target: T3, TEC (Homo sapiens, UniProt P42680); experiment: Caliper Mobility Shift Assay, kinase inhibition; type: biochemical
T3 sequence (P42680 1-631): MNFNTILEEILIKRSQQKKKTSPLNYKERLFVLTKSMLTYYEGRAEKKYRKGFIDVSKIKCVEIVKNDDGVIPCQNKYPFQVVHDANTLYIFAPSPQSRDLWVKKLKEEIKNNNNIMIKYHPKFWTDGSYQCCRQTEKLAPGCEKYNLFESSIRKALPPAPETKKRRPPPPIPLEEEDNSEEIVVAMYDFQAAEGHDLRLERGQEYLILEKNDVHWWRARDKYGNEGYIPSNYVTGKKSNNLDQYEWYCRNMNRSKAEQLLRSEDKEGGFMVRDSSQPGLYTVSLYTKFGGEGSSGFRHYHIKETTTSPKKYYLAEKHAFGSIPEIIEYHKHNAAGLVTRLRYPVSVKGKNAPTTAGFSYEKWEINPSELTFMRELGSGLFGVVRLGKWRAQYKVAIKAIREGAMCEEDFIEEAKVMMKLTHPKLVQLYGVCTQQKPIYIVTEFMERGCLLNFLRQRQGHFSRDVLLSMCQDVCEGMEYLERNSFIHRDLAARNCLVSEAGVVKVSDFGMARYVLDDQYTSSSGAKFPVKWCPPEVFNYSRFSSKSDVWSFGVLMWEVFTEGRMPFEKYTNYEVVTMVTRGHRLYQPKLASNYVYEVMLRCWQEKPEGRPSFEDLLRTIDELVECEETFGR
Excerpt: as §1

HER2 = HER2 (Homo sapiens, UniProt P04626); experiment: Caliper Mobility Shift Assay, kinase inhibition; type: biochemical
Sequence of HER2 (P04626 23-1255): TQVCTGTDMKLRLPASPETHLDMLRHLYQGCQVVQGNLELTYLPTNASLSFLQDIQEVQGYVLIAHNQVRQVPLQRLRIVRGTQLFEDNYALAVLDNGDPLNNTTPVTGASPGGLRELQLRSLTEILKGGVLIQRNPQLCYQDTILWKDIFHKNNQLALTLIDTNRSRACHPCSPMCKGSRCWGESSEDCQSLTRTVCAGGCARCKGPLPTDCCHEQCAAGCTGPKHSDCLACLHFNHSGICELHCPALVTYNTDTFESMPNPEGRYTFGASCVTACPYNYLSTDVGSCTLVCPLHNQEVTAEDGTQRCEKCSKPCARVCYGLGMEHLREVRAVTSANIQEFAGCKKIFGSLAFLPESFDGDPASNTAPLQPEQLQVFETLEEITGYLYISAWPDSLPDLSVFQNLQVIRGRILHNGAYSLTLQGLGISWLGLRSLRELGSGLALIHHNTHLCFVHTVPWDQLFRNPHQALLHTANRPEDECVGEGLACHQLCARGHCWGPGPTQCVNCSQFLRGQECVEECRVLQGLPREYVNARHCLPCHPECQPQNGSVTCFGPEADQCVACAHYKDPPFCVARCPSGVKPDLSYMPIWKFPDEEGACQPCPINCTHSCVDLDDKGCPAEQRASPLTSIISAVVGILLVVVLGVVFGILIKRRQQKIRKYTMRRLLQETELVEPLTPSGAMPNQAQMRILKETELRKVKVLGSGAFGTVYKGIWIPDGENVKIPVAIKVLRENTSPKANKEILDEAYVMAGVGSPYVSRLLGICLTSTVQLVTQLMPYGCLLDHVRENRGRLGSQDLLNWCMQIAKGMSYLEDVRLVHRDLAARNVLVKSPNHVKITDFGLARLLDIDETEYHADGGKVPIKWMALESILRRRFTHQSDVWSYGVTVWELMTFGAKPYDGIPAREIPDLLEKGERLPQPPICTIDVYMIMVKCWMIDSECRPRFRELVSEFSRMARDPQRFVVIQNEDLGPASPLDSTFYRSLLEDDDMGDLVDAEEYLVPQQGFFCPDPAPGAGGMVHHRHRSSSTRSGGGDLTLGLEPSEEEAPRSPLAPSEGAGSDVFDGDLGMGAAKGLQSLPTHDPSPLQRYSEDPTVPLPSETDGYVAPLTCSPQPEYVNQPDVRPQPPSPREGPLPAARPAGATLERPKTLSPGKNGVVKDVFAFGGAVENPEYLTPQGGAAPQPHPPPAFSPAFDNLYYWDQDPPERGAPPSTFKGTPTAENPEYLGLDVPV
Excerpt: as §1

[4] = Pharmacokinetic properties in CD-1 mouse; type: in vivo; details: both sexes, plasma; for AUC(0-t): read-out: AUClast (area under the curve); for half-life: read-out: Terminal t1/2 (half life) (converted)
Experimental: Experiment animals: CD-1 mouse, males and females; body weight: 20-25 g;
Route of administration: oral/intravenous. […]
Sample collection: blood samples were collected at the following time points: 5 minutes, 15 minutes, 30 minutes, 1 hours, 2 hours, 4 hours, 8 hours and 24 hours after administration.
Sample analysis: The collected samples were tested using the LC-MS/MS method. The model of the instrument used was API4000.
Pharmacokinetic data analysis: the obtained plasma concentration data were fitted and calculated according to the non-compartmental model method using WinNolin.
In Table 3, CL: clearance. VSS: apparent volume of distribution at steady state. Terminal t1/2: half life. AUClast: area under the curve. MRTINF: average residence time. Tmax: peak time. Cmax: peak concentration. F: bioavailability, refers to the fraction of oral dosage actually reaching the blood circulation.

[5] = system: ITK, TEC, EGFR, HER2, HER4, JAK3, HCK, LYN, SRC and SYK; experiment: Kinase selectivity panel, Caliper Mobility Shift Assay; type: biochemical; details: summary of Table 2
Experimental: The semi-inhibitory concentration IC50 of the compound (the concentration of the compound required to inhibit the enzyme activity to 50%) is determined by mixing a fixed enzyme with a specific substrate and different concentrations of the test compounds. The test method used was the Caliper Mobility Shift Assay, the kinases to be tested are BTK, ITK, TEC, EGFR, HER2, HER4, JAK3, HCK, LYN, SRC and SYK. The standard reference compound used was staurosporine.
The results of experiments on the inhibitions of ITK, TEC, EGFR, HER2, HER4, JAK3, HCK, LYN, SRC and SYK enzyme activities by the target compound Id were summarized in Table 2. […] This selective inhibiting effect has important values for the treatment of diseases such as rheumatoid arthritis, B cell lymphoma, leukemia, multiple myeloma, allergies, asthma, multiple sclerosis, type I diabetes and systemic lupus erythematosus. The tests of other compounds of the present invention also have similar results.

[6] = 3 mg/kg, intravenous injection, single administration
[7] = 15 mg/kg, oral, single administration

Row | Compound | IC50 (SYK) [nM] | IC50 (HCK) [nM] | IC50 (LYN) [nM] | IC50 (SRC) [nM] | half-life [1] [min] | CLint scaled [1] [mL/min/kg] | half-life [3] [min] | CLint scaled [3] [mL/min/kg] | IC50 (BTK) [nM] | inhibiting effects on BTK kinase (in words) (BTK) | also measured
1 | CC#CC(=O)N1CCC[C@H]1c1nc(-c2ccc(C(=O)Nc3ccccn3)cc2)c2c(N)nccn12 [Acalabrutinib, acalabrutinib, reference compound] | > 1000 | > 1000 | > 1000 | > 1000 | 23.3 | 234 | 11.9 | 146 | – | – | half life [2]: 67.8 min
2 | CC#CC(=O)N1CCC[C@H]1c1nc(-c2ccc(NC(=O)c3ccccn3)cc2)c2c(N)nccn12 [Compound of formula Ia] | – | – | – | – | – | – | – | – | 415 | strong inhibiting effects | –
3 | CC#CC(=O)N1CCC[C@H]1c1nc(-c2ccc(C(=O)Nc3ccccn3)c(C)c2)c2c(N)nccn12 [Compound of formula Ib] | – | – | – | – | – | – | – | – | 50 | very strong inhibiting effects | –
4 | CC#CC(=O)N1CCC[C@H]1c1nc(-c2ccc(Oc3ccccn3)cc2)c2c(N)nccn12 [Compound of formula Ic] | – | – | – | – | – | – | – | – | 577 | strong inhibiting effects | –
5 | CC#CC(=O)N1CCC[C@H]1c1nc(-c2ccc(Oc3ccccc3)cc2)c2c(N)nccn12 [Compound of formula Id] | > 1000 | > 1000 | > 1000 | > 1000 | 8.26 | 661 | 3.13 | 555 | 4.8 | very strong inhibiting effects | IC50 (ITK): > 1000 nM; IC50 (JAK3): > 1000 nM; IC50 (EGFR): > 1000 nM; IC50 (HER4): > 1000 nM; IC50 (TEC): 40 nM; IC50 (HER2): > 1000 nM; metabolism rate relative to acalabrutinib (in words) ([1]; mouse or human liver microsomes): metabolized faster than acalabrutinib; AUC(0-t) [4, 6]: 661 ng·h/mL; clearance ([4]; 3 mg/kg, intravenous injection, single administration, read-out: CL (clearance) (converted)): 77 mL/min/kg; MRT inf ([4]; 3 mg/kg, intravenous injection, single administration, read-out: MRTINF (average residence time)): 17.8 min; half-life [4, 6]: 17.2 min; Vd ([4]; 3 mg/kg, intravenous injection, single administration, read-out: Vss (apparent volume of distribution at steady state)): 1.3 L/kg; bioavailability ([4]; 15 mg/kg oral vs 3 mg/kg intravenous, read-out: F (bioavailability)): 56.4%; AUC(0-t) [4, 7]: 1880 ng·h/mL; Cmax ([4]; 15 mg/kg, oral, single administration, read-out: Cmax (peak concentration)): 848 ng/mL; half-life [4, 7]: 98.4 min; Tmax ([4]; 15 mg/kg, oral, single administration, read-out: Tmax (peak time)): 15 min; selective inhibiting activity (in words) [5]: good
